Where two headings read alike, the source gives them in different places.
Tests used:
[1] = test system: drug-resistant Escherichia coli I (a strain resistant to carbapenem antibiotics); test: Chessboard microbroth dilution MIC/FIC, compound A in combination with meropenem; type: cell-based; conditions: for MIC: Escherichia coli, read-out: Meropenem MIC alone; for Meropenem MIC in combination: with compound A
From the text: This experiment is designed to determine the minimum inhibitory concentration (MIC) of compound A in combination with meropenem against drug-resistant Escherichia coli I (a strain resistant to carbapenem antibiotics) and drug-resistant Escherichia coli II (a strain resistant to fluoroquinolone antibiotics, non-fluoroquinolone antibiotics, aminoglycoside antibiotics, glycopeptide antibiotics and carbapenem antibiotics), and to calculate the fractional inhibitory concentration (FIC) index.
3 strains of drug-resistant Escherichia coli I, namely drug-resistant Escherichia coli 18-W09-093, drug-resistant Escherichia coli 18-W37-025, and drug-resistant Escherichia coli 18-W37-032, are provided by Shanghai Junji Medical Laboratory Co., Ltd. These 3 strains are all resistant to carbapenem antibiotics (e.g., meropenem).
(§1) According to the recommendation of the Clinical and Laboratory Standards Institute (CLSI), the microbroth dilution method designed by the chessboard method was used to determine the minimum inhibitory concentration (MIC) of compound A in combination with meropenem against the above strains, and the fractional inhibitory concentration (FIC) index was calculated.
Compound A was dissolved in dimethyl sulfoxide to obtain a stock solution I with a concentration of 1280 mg/L. The stock solution I was diluted to 512 mg/L with sterile water to obtain a gradient dilution first tube solution I. The gradient dilution first tube solution I was subjected to 1:1 gradient dilution with sterile water to obtain a working solution I with a gradient range of 512 to 0.25 mg/L.
Meropenem was dissolved in sterile water to obtain a stock solution II with a concentration of 5120 mg/L. The stock solution II was diluted to 1024 mg/L with sterile water to obtain a gradient dilution first tube solution II. The gradient dilution first tube solution II was subjected to 1:1 gradient dilution with sterile water to obtain a working solution II with a gradient range of 1024 to 0.5 mg/L.
(§2) According to the method in Example 1, a drug sensitive plate was prepared with working solution I and working solution II, and the specific process will not be repeated here.
(§3) (2) The culture medium of the bacterial solution: Cation-Adjusted Mueller-Hinton Broth (CAMHB), a product of BBL, USA, batch number 9015952.
(§4) (3) Formulation method of bacterial solution: According to the direct colony suspension method, the test bacteria cultured overnight were prepared into a 0.5 McFarland turbidity tube using physiological saline. Then, the resulting solution was dilute 100 times with the above culture medium. 100 μL of the resulting bacterial solution was mixed well with the solution (100 μL) in each well of the drug sensitivity plate, and the final inoculation amount was 10^5 CFU/mL.
(§5) (4) Culture conditions: Culturing at 35±2° C. for 20 hours in air.
(1) The experimental results were determined according to the standard of CLSI 2019 M100 29th edition.
(§6) wherein: FIC≤0.5 indicates synergistic effect; 0.5<FIC≤1.0 indicates additive effect; 1<FIC≤2.0 indicates irrelevant effect; and FIC>2 indicates antagonistic effect.

[2] = test system: carbapenem-resistant Acinetobacter baumannii; test: as above; type: cell-based; conditions: for MIC: Acinetobacter baumannii, read-out: Meropenem MIC alone; for Meropenem MIC in combination: with compound A
From the text: This experiment is designed to determine the minimum inhibitory concentration (MIC) of compound A in combination with meropenem against carbapenem-resistant Acinetobacter baumannii and to calculate the fractional inhibitory concentration (FIC) index.
Test bacteria: 10 strains of carbapenem-resistant Acinetobacter baumannii are clinically isolated strains, and are provided by Shanghai Junji Medical Laboratory Co., Ltd.
as §1
Compound A was dissolved in dimethyl sulfoxide to obtain a stock solution I with a concentration of 51200 mg/L. The stock solution I was subjected to 1:1 gradient dilution with dimethyl sulfoxide to obtain a dilution solution with a concentration range of 51200 to 25 mg/L. The corresponding concentrations were added to sterile water for 100-fold dilution to obtain working solution I with a concentration range of 512 to 0.25 mg/L.
Meropenem was dissolved in sterile water to obtain a stock solution with a concentration of 5120 mg/L. The […] stock solution was subjected to 1:1 gradient dilution with sterile water to obtain a working solution II with a concentration range of 512 to 0.25 mg/L.
as §2, §3, §4, §5
(1) The experimental results were determined according to the standard of CLSI 2020 M100 30th edition.
as §6

MIC ([1]; strain 18-W09-093): 256 µg/mL
MIC ([1]; strain 18-W37-025): 128 µg/mL
MIC ([1]; strain 18-W37-032): 128 µg/mL
Meropenem MIC in combination ([1]; strain 18-W09-093): 2 µg/mL
Meropenem MIC in combination ([1]; strain 18-W37-025): 1 µg/mL
Meropenem MIC in combination ([1]; strain 18-W37-032): 4 µg/mL
MIC ([2]; strain No. 1): 128 µg/mL
MIC ([2]; strain No. 2): 128 µg/mL
MIC ([2]; strain No. 3): 128 µg/mL
MIC ([2]; strain No. 4): 128 µg/mL
MIC ([2]; strain No. 5): 128 µg/mL
MIC ([2]; strain No. 6): 128 µg/mL
MIC ([2]; strain No. 7): 64 µg/mL
MIC ([2]; strain No. 8): 64 µg/mL
MIC ([2]; strain No. 9): 64 µg/mL
MIC ([2]; strain No. 10): 128 µg/mL
Meropenem MIC in combination ([2]; strain No. 1): 16 µg/mL
Meropenem MIC in combination ([2]; strain No. 2): 16 µg/mL
Meropenem MIC in combination ([2]; strain No. 3): 16 µg/mL
Meropenem MIC in combination ([2]; strain No. 4): 16 µg/mL
Meropenem MIC in combination ([2]; strain No. 5): 16 µg/mL
Meropenem MIC in combination ([2]; strain No. 6): 16 µg/mL
Meropenem MIC in combination ([2]; strain No. 7): 16 µg/mL
Meropenem MIC in combination ([2]; strain No. 8): 8 µg/mL
Meropenem MIC in combination ([2]; strain No. 9): 8 µg/mL
Meropenem MIC in combination ([2]; strain No. 10): 16 µg/mL
SMILES: C[C@@H](O)[C@H]1C(=O)N2C(C(=O)O)=C(S[C@@H]3CN[C@H](C(=O)N(C)C)C3)[C@H](C)[C@H]12 [Meropenem, reference compound]

From US20260240832A1, “USE OF NITROXOLINE COMPOUND IN ENHANCING EFFECT OF ANTIBACTERIAL AGENT” (Jiangsu Yahong Meditech Co., Ltd., priority 2022, published 2026)
